Results as given in patent US9938257B2 (Sunshine Lake Pharma Co., Ltd., priority 2015, dated 2018).
Read-outs that look alike come from different tables or passages of the source.

What was measured:
[1] = Compound stability in rat liver microsomes; type: in vitro ADME; conditions: pH 7.4; for half-life at 5 μM: rat liver microsomes 0.5 mg protein/mL, compound 5 μM, NADPH 1.0 mM, 37° C., read-out: Rat T1/2; for CLint scaled at 5 μM: rat liver microsomes, in vivo CLint extrapolated
Method: (§1) Human or rat liver microsomes incubations were conducted in duplicate in polypropylene tubes. The typical incubation mixtures consisted of human or rat liver microsomes (0.5 mg protein/mL), compounds of interest (5 μM) and NADPH (1.0 mM) in a total volume of 200 μL potassium phosphate buffer (PBS, 100 mM, pH 7.4). Compounds were dissolved in DMSO and diluted with PBS such that the final concentration of DMSO was 0.05%. The enzymatic reactions were commenced with the addition of protein after a 3-min preincubation and incubated in a water bath open to the air at 37° C. Reactions were terminated at various time points (0, 5, 10, 15, 30, 60 min) by adding equal volume of ice-cold acetonitrile. The samples were stored at −80° C. until LC/MS/MS assays.
(§2) The concentrations of compounds in the incubation mixtures of human or rat liver microsomes were determined by a LC/MS/MS method. The ranges of the linearity in the concentration range were determined for each tested compounds.
(§3) A parallel incubation was performed using denatured microsomes as the negative control, and reactions were terminated at various time points (0, 15, 60 min) after incubation at 37° C.
(§4) Dextromethorphan (70 μM) was selected as the positive control, and reactions were terminated at various time points (0, 5, 10, 15, 30, 60 min) after incubation at 37° C. Both positive and negative control samples were included in each assay to ensure the integrity of the microsomal incubation system.
(§5) The concentrations of compounds in human or rat liver microsome incubations were plotted as a percentage of the relevant zero time point control for each reaction. The in vivo CLint were extrapolated (ref.: Naritomi, Y.; Terashita, S.; Kimura, S.; Suzuki, A.; Kagayama, A.; and Sugiyama, Y.; Prediction of human hepatic clearance from in vivo animal experiments and in vitro metabolic studies with liver microsomes from animals and humans. Drug Metab. Dispos., 2001, 29: 1316-1324).

[2] = Compound stability in human liver microsomes; type: in vitro ADME; conditions: pH 7.4; for half-life at 5 μM: human liver microsomes 0.5 mg protein/mL, compound 5 μM, NADPH 1.0 mM, 37° C., read-out: Human T1/2; for CLint scaled at 5 μM: human liver microsomes, in vivo CLint extrapolated
Method: as §1, §2, §3, §4, §5

[3] = Pharmacokinetics after intravenous and oral administration in rats; type: in vivo; conditions: for F: oral bioavailability; for AUC(0-t) / half-life / Vd: rat, plasma; for Clearance (CL) after iv dosing / AUC(0-t) / half-life / Vd: iv dosing; for Vd: read-out: Vss
Method: The compounds disclosed herein are assessed in pharmacokinetic studies in mice, rats, dogs or monkeys. The compounds are administered as a water solution, 2% HPMC+1% TWEEN®80 in water solution, 5% DMSO+5% solutol in saline, 4% MC suspension or capsule. For the intravenous administration, the animals are generally given at 0.5, 1 or 2 mg/kg dose. For the oral (p.o.) dosing, mice and rats are generally given 0.5, 1, 5 or 10 mg/kg dose, and dogs and monkeys are generally given 10 mg/kg dose. The blood samples (0.3 mL) are drawn at 0.25, 0.5, 1.0, 2.0, 3.0, 4.0, 6.0, 8.0, 12 and 24 h time points or 0.083, 0.25, 0.5, 1.0, 2.0, 4.0, 6.0, 8.0 and 24 h time points and centrifuged at 3,000 or 4000 rpm for 2 to 10 min. The plasma solutions are collected, and stored at −20° C. or −70° C. until analyzed by LC/MS/MS as described above.

Row | SMILES | half-life at 5 μM [1] [h] | CLint scaled at 5 μM [1] [mL/min/kg] | half-life at 5 μM [2] [h] | CLint scaled at 5 μM [2] [mL/min/kg] | further results
1 | N#CCC(=O)N1CC2CC(Nc3nc(Nc4cnn(C5CCCNC5)c4)ncc3Cl)CC2C1 (stereo not shown) [Ex. 3, 3-(5-((5-chloro-2-((1-(piperidin-3-yl)-1H-pyrazol-4-yl)amino)pyrimidin-4-yl)amino)hexahydrocyclopenta[c]pyrrol-2(1H)-yl)-3-oxopropanenitrile] | 0.0647 | 639 | 9.24 | 3.13 | 
2 | CC(=O)N1CC2CC(Nc3nc(Nc4cnn(C5CCCNC5)c4)ncc3Cl)CC2C1 (stereo not shown) [Ex. 4, 1-(5-((5-chloro-2-((1-(piperidin-3-yl)-1H-pyrazol-4-yl)amino)pyrimidin-4-yl)amino)hexahydrocyclopenta[c]pyrrol-2(1H)-yl)ethanone] | 1.15 | 36.1 | 15.9 | 1.83 | 
3 | N#CCC(=O)N1CC2CC(Nc3nc(Nc4cnn(C5CCNCC5)c4)ncc3Cl)CC2C1 (stereo not shown) [Ex. 5, 3-(5-((5-chloro-2-((1-(piperidin-4-yl)-1H-pyrazol-4-yl)amino)pyrimidin-4-yl)amino)hexahydrocyclopenta[c]pyrrol-2(1H)-yl)-3-oxopropanenitrile] |  |  | 17.4 | 1.66 | 
4 | CC(=O)N1CC2CC(Nc3nc(Nc4cnn(C5CCNCC5)c4)ncc3Cl)CC2C1 (stereo not shown) [Ex. 6, 1-(5-((5-chloro-2-((1-(piperidin-4-yl)-1H-pyrazol-4-yl)amino)pyrimidin-4-yl)amino)hexahydrocyclopenta[c]pyrrol-2(1H)-yl)ethanone] | 44 | 0.94 | 11 | 2.63 | 
5 | COc1ccc(-n2cc(Nc3ncc(Cl)c(NC4CC5CN(C(C)=O)CC5C4)n3)cn2)cn1 (stereo not shown) [Ex. 11, 1-(5-((5-chloro-2-((1-(6-methoxypyridin-3-yl)-1H-pyrazol-4-yl)amino)pyrimidin-4-yl)amino)hexahydrocyclopenta[c]pyrrol-2(1H)-yl)ethanone] |  |  |  |  | Clearance (CL) after iv dosing ([3]; dose 1 mg/kg): 75.3 mL/min/kg; F ([3]; iv dose 1 mg/kg): 19.5%; AUC(0-t) ([3]; dose 1 mg/kg): 235 ng·h/mL; half-life ([3]; dose 1 mg/kg): 0.3 h; Vd ([3]; dose 1 mg/kg): 1.22 L/kg
6 | Cn1cc(Nc2ncc(Cl)c(NC3CCC4(CC3)CCN(C(=O)CC3CC3)CC4)n2)cn1 [Ex. 20, 1-(9-((5-chloro-2-((1-methyl-1H-pyrazol-4-yl)amino)pyrimidin-4-yl)amino)-3-azaspiro[5.5]undecan-3-yl)-2-cyclopropyl ethanone] |  |  |  |  | Clearance (CL) after iv dosing ([3]; dose 0.5 mg/kg): 24.7 mL/min/kg; F ([3]; iv dose 0.5 mg/kg): 91.2%; AUC(0-t) ([3]; dose 0.5 mg/kg): 348 ng·h/mL; half-life ([3]; dose 0.5 mg/kg): 0.7 h; Vd ([3]; dose 0.5 mg/kg): 1.07 L/kg
7 | Cn1cc(Nc2ncc(Cl)c(NC3CC4CN(C(=O)c5ccccc5)CC4C3)n2)cn1 (stereo not shown) [Ex. 27, (5-((5-chloro-2-((1-methyl-1H-pyrazol-4-yl)amino)pyrimidin-4-yl)amino)hexahydrocyclopenta[c]pyrrol-2(1H)-yl)(phenyl)methanone] |  |  |  |  | Clearance (CL) after iv dosing ([3]; dose 1 mg/kg): 77.7 mL/min/kg; F ([3]; iv dose 1 mg/kg): 22.5%; AUC(0-t) ([3]; dose 1 mg/kg): 218 ng·h/mL; half-life ([3]; dose 1 mg/kg): 0.22 h; Vd ([3]; dose 1 mg/kg): 0.93 L/kg
8 | CC(=O)N1CCC2(CCC(Nc3nc(Nc4cnn(C5CCNCC5)c4)ncc3Cl)CC2)CC1 [Ex. 33, 1-(9-((5-chloro-2-((1-(piperidin-4-yl)-1H-pyrazol-4-yl)amino)pyrimidin-4-yl)amino)-3-azaspiro[5.5]undecan-3-yl)ethanone] | 5.36 | 7.73 | 4.58 | 6.32 | 
9 | CC(C)(O)Cn1cc(Nc2ncc(Cl)c(NC3CC4CN(C(=O)NC5CC5)CC4C3)n2)cn1 (stereo not shown) [Ex. 36, 5-((5-chloro-2-((1-(2-hydroxy-2-methylpropyl)-1H-pyrazol-4-yl)amino)pyrimidin-4-yl)amino)-N-cyclopropylhexahydrocyclopenta[c]pyrrole-2(1H)-carboxamide] | 0.511 | 81 | 1.15 | 25.1 | 
